From patent US10023565B2, “N,N′ substituted piperidinamine compounds, and preparation method and usage thereof” (Institute of Pharmacology and Toxicology Academy of …, priority 2013, dated 2018)

Columns and labels:
Test in all cases: Antitumor bioactivity evaluation, breast cancer cells (ATPlite)
BT/Lap^R1.0 = assay type: cell-based, human; settings: Homo sapiens; test sample 5 μM, 72 hours; read-out: Inhibitory Rate % BT/Lap^R1.0
Procedure: (§1) Antitumor bioactivity evaluation of the compounds of Examples according to the method described below
(§2) Cells plating: a 100 mm culture dish with overgrown adherent cells was digested with 1 ml 0.25% trypsin (GIBCO) at 37° C. for 5 min, and the reaction was terminated with 2 ml culture medium (containing 10% FBS, GIBCO). The cells were scattered and collected, after counting, diluted to 1×10^5 cells/ml, and seeded into a 96-well plate at 50 μl/well, 5000 cells/well, excluding the peripheral circle of wells in which no cell was added, but PBS was added, 60 wells in total, and then incubated at 37° C. for 24 hours for adhering.
(§3) Addition of the compound and lapatinib: the test sample was diluted to a final concentration of 5 μM, and the culture medium with the corresponding compound solvent concentration was filled in the control well, the compound solvent concentration was kept consistent in each well, 5 parellel wells were set for each concentration, 25 μl each well, 25 μl culture medium (in combined group, 25 μl lapatinib was added till a final concentration of 1 μM) supplemented, followed by incubation at 37° C. for 72 hours.
(§4) Test after incubation at 37° C. for 72 hours: 50 μL of ATPlite kit substrate solution was added in each well, and vibrated for 3 min, followed by placing aside in darkness for 10 min, and then supernatant 100 μl/well was taken and placed on aluminescence test plate; the luminescence test plate that has been fully incubated was placed in a luminescence test instrument, to read luminescence value.
(§5) 1. Cell survival rate (%)=Experimental group RLU/control group RLU×100%. The experimental data were subjected to data analysis and processing by utilizing GraphPad software.

BT474 = assay type: cell-based; settings: Homo sapiens, BT-474; test sample 5 μM, 72 hours; read-out: Inhibitory Rate % BT474
Procedure: as §1, §2, §3, §4, §5

SK/Lap^R1.0 = assay type: cell-based; settings: Homo sapiens; test sample 5 μM, 72 hours; read-out: Inhibitory Rate % SKLap^R1.0
Procedure: as §1, §2, §3, §4, §5

SK-BR3 = assay type: cell-based; settings: Homo sapiens, SK-BR-3; test sample 5 μM, 72 hours; read-out: Inhibitory Rate % SK-BR3
Procedure: as §1, §2, §3, §4, §5

MDA-MB-361 = assay type: cell-based; settings: Homo sapiens, test sample 5 μM, 72 hours, read-out: Inhibitory Rate % MDA-MB-361
Procedure: as §1, §2, §3, §4, §5

MDA-MB-453 = assay type: cell-based; settings: Homo sapiens, test sample 5 μM, 72 hours, read-out: Inhibitory Rate % MDA-MB-453
Procedure: as §1, §2, §3, §4, §5

Structure (SMILES)	inhibition at 5 µM (BT/Lap^R1.0) [%]	inhibition at 5 µM (BT474) [%]	inhibition at 5 µM (SK/Lap^R1.0) [%]	inhibition at 5 µM (SK-BR3) [%]	inhibition at 5 µM (MDA-MB-361) [%]	inhibition at 5 µM (MDA-MB-453) [%]
CCOc1ncc(CN2CCC(N(C)Cc3cccc(Cl)c3)CC2)s1 [Example 1, N-methyl-N-m-chlorobenzyl-N-{1-[(2-ethoxythiazol-5-yl)methyl]piperidin-4-yl}amine]	12.5	14.4	5.2	16.7	14.2	41.2
CCOc1ncc(CN2CCC(N(C)Cc3ccccc3C#N)CC2)s1 [Example 2, N-methyl-N-o-cyanobenzyl-N-{1-[(2-ethoxythiazol-5-yl)methyl]piperidin-4-yl}amine]	19.4	17.6	7.2	13.6	12.3	43.8
CCOc1ncc(CN2CCC(N(C)Cc3ccc(Cl)c(Cl)c3)CC2)s1 [Example 3, N-methyl-N-(3,4-dichlorobenzyl)-N-{1-[(2-ethoxythiazol-5-yl)methyl]piperidin-4-yl}amine]	67.4	62.9	13.1	41.2	35.8	71.6
CCOc1ncc(CN2CCC(N(C)Cc3ccc(C#N)cc3)CC2)s1 [Example 4, N-methyl-N-(4-cyanobenzyl)-N-{1-[(2-ethoxythiazol-5-yl)methyl]piperidin-4-yl}amine]	66.1	61.7	6.7	45.5	51.3	70.5
CCOc1ncc(CN2CCC(N(C)Cc3c(F)cccc3Cl)CC2)s1 [Example 5, N-methyl-N-(2-fluoro-6-chlorobenzyl)-N-{1-[(2-ethoxythiazol-5-yl)methyl]piperidin-4-yl} amine]	50.5	54.4	11.7	40.9	32.8	67.4
CCOc1ncc(CN2CCC(N(C)Cc3ccccc3Cl)CC2)s1 [Example 6, N-methyl-N-(2-chlorobenzyl)-N-{1-[(2-ethoxythiazol-5-yl)methyl]piperidin-4-yl}amine]	13.3	10.1	0.6	12.6	33.3	36.4
CCOc1ncc(CN2CCC(N(C)Cc3ccc(F)cc3)CC2)s1 [Example 7, N-methyl-N-(4-fluorobenzyl)-N-{[1-(2-ethoxythiazol-5-yl)methyl]piperidin-4-yl}amine]	20.7	36.4	25.1	26	24.2	52.9
CCOc1ncc(CN2CCC(N(C)Cc3ccc(Cl)cc3Cl)CC2)s1 [Example 8, N-methyl-N-(2,4-dichlorobenzyl)-N-{[1-(2-ethoxythiazol-5-yl)methyl]piperidin-4-yl}amine]	65.9	70.3	12	41.6	49.2	71.3
CCOc1ncc(CN2CCC(N(C)Cc3c(Cl)cccc3Cl)CC2)s1 [Example 9, N-methyl-N-(2,6-dichlorobenzyl)-N-{[1-(2-ethoxythiazol-5-yl)methyl]piperidin-4-yl}amine]	25.6	38.2	5.1	17.9	24.5	51.5
CCOc1ncc(CN2CCC(N(C)Cc3cc(Cl)ccc3Cl)CC2)s1 [Example 10, N-methyl-N-(2,5-dichlorobenzyl)-N-{[1-(2-ethoxythiazol-5-yl)methyl]piperidin-4-yl}amine]	9.6	5.6	5.2	9.4	25.3	23.9
Clc1ncc(CN2CCC(NCc3ccc(Cl)c(Cl)c3)CC2)s1 [Example 11, N-(3,4-dichlorobenzyl)-N-{1-[(2-chlorothiazol-5-yl)methyl]piperidin-4-yl}amine]	10.6	11	25.1	26.3	13.9	32.9
Clc1cccc(CNC2CCN(Cc3cnc(Cl)s3)CC2)c1 [Example 13, N-(3-chlorobenzyl)-N-{1-[(2-chlorothiazol-5-yl)methyl]piperidin-4-yl}amine]	7.2	3.8	4.1	17.9	3.2	2.4
CN(Cc1ccc(C#N)cc1)C1CCN(Cc2cnc(Cl)s2)CC1 [Example 15, N-methyl-N-(4-cyanobenzyl)-N-{1-[(2-chlorothiazol-5-yl)methyl]piperidin-4-yl}amine]	68.7	69.3	7.5	41.5	35.6	68.5
CN(Cc1ccc(F)cc1)C1CCN(Cc2cnc(Cl)s2)CC1 [Example 16, N-methyl-N-(4-fluorobenzyl)-N-{1-[(2-chlorothiazol-5-yl)methyl]piperidin-4-yl}amine]	9	7.1	-0.1	18.6	-1.3	11
CN(Cc1ccc(Cl)c(Cl)c1)C1CCN(Cc2cnc(Cl)s2)CC1 [Example 17, N-methyl-N-(3,4-dichlorobenzyl)-N-{1-[(2-chlorothiazol-5-yl)methyl]piperidin-4-yl}amine]	53.4	45.4	5.3	34.3	42.9	63.8
CN(Cc1cccc(Cl)c1)C1CCN(Cc2cnc(Cl)s2)CC1 [Example 18, N-methyl-N-(3-chlorobenzyl)-N-{1-[(2-chlorothiazol-5-yl)methyl]piperidin-4-yl}amine]	8.4	7.1	8.5	15.5	9.7	12.6
CN(Cc1c(F)cccc1Cl)C1CCN(Cc2cnc(Cl)s2)CC1 [Example 19, N-methyl-N-(2-fluoro-6-chlorobenzyl)-N-{[1-(2-chlorothiazol-5-yl)methyl]piperidin-4-yl}amine]	3.2	10.6	1.5	9.8	10.4	22.4
CN(Cc1ccc(Cl)cc1Cl)C1CCN(Cc2cnc(Cl)s2)CC1 [Example 20, N-methyl-N-(2,4-dichlorobenzyl)-N-{[1-(2-chlorothiazol-5-yl)methyl]piperidin-4-yl}amine]	61.8	64.1	11.4	47.1	30.1	60.8
Cc1ccccc1CN(C)C1CCN(Cc2cnc(Cl)s2)CC1 [Example 21, N-methyl-N-(2-methylbenzyl)-N-{[1-(2-chlorothiazol-5-yl)methyl]piperidin-4-yl}amine]	4	1.5	5.1	9.7	4.4	3.5
Cc1ccc(CN(C)C2CCN(Cc3cnc(Cl)s3)CC2)cc1 [Example 22, N-methyl-N-(4-methylbenzyl)-N-{[1-(2-chlorothiazol-5-yl)methyl]piperidin-4-yl}amine]	16	14.2	8.4	26.2	10.9	29.6
CN(Cc1cccc(F)c1)C1CCN(Cc2cnc(Cl)s2)CC1 [Example 23, N-methyl-N-(3-fluorobenzyl)-N-{[1-(2-chlorothiazol-5-yl)methyl]piperidin-4-yl}amine]	5.7	2.4	1.3	4.2	3.2	4.4
